Results published in patent US11920157B2, “Applications of butylidenephthalide” (NATIONAL DONG HWA UNIVERSITY, priority 2016, dated 2024).

How the values were obtained:
adipose stem cells = experiment: Production of adipose droplets in adipose cells differentiated from adipose stem cells (microscope morphology, oil red stain); assay type: cell-based; details: 7 days
Description: A DMEM medium (brand name: GIBCO; product number: 11965092) was used as a basic medium, and rosiglitazone (concentration: 0.5 μM, solvent: dimethyl sulfoxide (DMSO)), insulin (concentration: 170 nM, solvent: culture medium), 3-isobutyl-1-methylxanthine (IBMX; concentration: 0.5 μM, solvent: DMSO) and dexamethasone (concentration: 1 μM, solvent: DMSO) were externally added therein to provide a conditional medium.
The adipose stem cells (ADSCs) were cultivated in a DMEM/F12 medium at 37° C., 5% CO2 for 5 days. […] The results are shown in FIG. 1 (i.e., adipose stem cells (undifferentiated)).
The aforementioned pre-cultivated adipose stem cells provided by Example B1-1 were cultivated in a conditional medium provided by Example A1 at 37° C., 5% CO2 for 7 days to differentiate into adipose cells. […] The results are also shown in FIG. 1 (i.e., adipose cells (differentiated)).
(§1) The adipose cells provided by Example B1-2 were divided into seven groups and independently subjected to the following treatments:
(2) BP-2 group: cells were cultivated in a conditional medium that was externally added with butylidenephthalide (BP) (to a final concentration of 2 μg/mL) for 7 days (butylidenephthalide (BP) was purchased from ECHO CHEMICAL Co., Ltd. (Taiwan); product number: A10353);
(§2) (3) BP-10 group: cells were cultivated in a conditional medium that was externally added with butylidenephthalide (BP) (to a final concentration of 10 μg/mL) for 7 days;
(4) BP-50 group: cells were cultivated in a conditional medium that was externally added with butylidenephthalide (BP) (to a final concentration of 50 μg/mL) for 7 days;
First, the cell morphology of each group in photos taken in Examples B1-1, B1-2 and B1-3 was observed.
Thereafter, the adipose droplets of adipose stem cells (undifferentiated) provided by Example B1-1, adipose cells (differentiated) provided by Example B1-2 and adipose cells in “BP-2 group”, “BP-10 group” and “BP-50 group” provided by Example B1-3 were stained by oil red dye, and the morphology thereof was taken photos and recorded. Then, the number of adipose droplets of adipose cells in each group was quantified.

adipose cells = experiment: Oxygen consumption rate and spare respiratory capacity of adipose cells (XF24 extracellular flux analyser); assay type: cell-based; details: 7 days, vs differentiated adipose cells not treated by BP
From the text: As described above, different from white adipose cells, the morphology of brown-like adipose cells/brown adipose cells is characterized by (i) containing numerous adipose droplets, (ii) containing a large number of mitochondria and (iii) having highly expressed uncoupling protein 1 (UCP1). […] Therefore, the number and proportion of brown-like adipose cells/brown adipose cells can be conceived by observing the number of adipose droplets in the cells, the oxygen consumption rate of adipose cells and the gene and protein expressions of UCP1.
After a medium was replaced with a fresh medium, the cells were continuously cultivated at 37° C. for 1 hour. Then, the mitochondrial biosynthesis of cells in each group was separately interfered with 25 μM oligomycin, 0.5 μM FCCP and 5 μM rotenone/antimycin A sequentially, and was continuously detected by a XF24 extracellular flux analyser (purchased from Seahorse Bioscience) prior to and during conduction of the aforementioned interference. The oxygen tension and acidification degree in the culture medium were detected by an adjusted probe to further calculate the oxygen consumption rate and spare respiratory capacity. The results of oxygen consumption rate are shown in FIG. 3A, and the results of basic oxygen consumption rate and spare respiratory capacity are shown in FIG. 3B.

UCP1 = UCP1 gene (RT-PCR) and UCP1 protein (Western blot) expression in adipose cells; assay type: cell-based; details: 7 days
Description: as §1
(1) Control group: cells were cultivated in a conditional medium provided by A1 for 7 days;
as §2
(5) Tofacitinib group: cells were cultivated in a conditional medium that was externally added with tofacitinib (to a final concentration of 2 μM) for 7 days (tofacitinib was purchased from UNI-ONWARD Corp. (Taiwan); product number: PZ0017);
(6) Adenosine group: cells were cultivated in a conditional medium that was externally added with adenosine (to a final concentration of 1 μM) for 7 days (adenosine was purchased from UNI-ONWARD Corp. (Taiwan); product number: A4036); and
(7) Proanthocyanidin group: cells were cultivated in a conditional medium that was externally added with proanthocyanidin (to a final concentration of 10 μM) for 7 days (adenosine was purchased from Hong Jing Co., Ltd. (Taiwan); product number: sc-344976).
The cells in each group provided by Example B1-3 were separately collected, and then the total RNA and protein of the cells were individually extracted for the following experimentation.
The total RNA was subjected to reverse transcription to provide cDNA, and then the expression of UCP1 gene of the cells in each group was analyzed by reverse transcription polymerase chain reaction (RT-PCR). The results are shown in FIG. 4A, wherein FABP4 gene was a biomarker of mature adipose cells, and thus, it was used as an internal control of adipose cells in this experimentation. The actin gene was used as an internal control of all the cells. Furthermore, the expression of UCP1 protein of the cells in each group was analyzed by Western blot. The results are shown in FIG. 4B, wherein FABP4 protein was used as an internal control of adipose cells. The actin was used as an internal control of all the cells.

C57BL/6 mice [1] = experiment: Fat browning in subcutaneous and visceral adipose tissue slices of high fat diet mice (H&E stain); assay type: in vivo; details: 18 weeks old, BP oral 250 mg/kg-body weight daily from week 9, cells i.v. 4×10^5 every two weeks from week 11, vs HFD group
Description: (§3) The C57BL/6 mice (purchased from National Laboratory Animal Center, Taiwan) were bred in Laboratory Animal Center of China Medical University, Taiwan (conditions: 3 mice were bred per cage; the temperature of the breeding room ranged from 20° C. to 24° C., and the relative humidity ranged from 50% to 70%; the light cycle was 12 hours; sufficient water and normal diet were supplied daily) until they were 4 weeks old. Then, the mice were randomly divided into seven groups (six mice per group), and individually subjected to the following treatment and experimentation:
(§4) (3) Oral administration of butylidenephthalide (BP) group (i.e., “HFD+BP” group): the mice were continuously fed with a high fat diet, and then simultaneously administered with butylidenephthalide (BP) by oral route at the beginning of the ninth week (dosage amount: every day, 250 mg/kg-body weight) until they were 18 weeks old. […]
B2-3. […] The weight of the subcutaneous adipose tissue and visceral adipose tissue of mice were measured and recorded, and the collected organs were kept at a temperature of −80° C. for following experimentation and analysis. […]

C57BL/6 mice [2] = experiment: Accumulation of white fat: organ appearance and weight of subcutaneous and visceral adipose tissue of high fat diet mice; assay type: in vivo
Description: as §3
(§5) (3) Oral administration of butylidenephthalide (BP) group (i.e., “HFD+BP” group): the mice were continuously fed with a high fat diet, and then simultaneously administered with butylidenephthalide (BP) by oral route at the beginning of the ninth week (dosage amount: every day, 250 mg/kg-body weight) until they were 18 weeks old.
(§6) (4) Cell infusion of adipose stem cells group (i.e., “HFD+ADSC” group): the mice were continuously fed with a high fat diet, and then simultaneously administered with adipose stem cells by intravenous injection at the beginning of the eleventh week (dosage amount: every two weeks, 4×10^5 cells suspended in 100˜150 μL of normal saline) until they were 18 weeks old (four injections in total).
(5) Oral administration of butylidenephthalide (BP) in combination with cell infusion of adipose stem cells group (i.e., “HFD+BP+ADSC” group): the mice were continuously fed with a high fat diet, then simultaneously administered with butylidenephthalide (BP) by oral route at the beginning of the ninth week (dosage amount: every day, 250 mg/kg-body weight), and further simultaneously administered with adipose stem cells by intravenous injection at the beginning of the eleventh week (dosage amount: every two weeks, 4×10^5 cells suspended in 100˜150 μL of normal saline) until they were 18 weeks old (four injections in total). […]
B2-3. […] The weight of the subcutaneous adipose tissue and visceral adipose tissue of mice were measured and recorded, and the collected organs were kept at a temperature of −80° C. for following experimentation and analysis.
To understand whether butylidenephthalide (BP) can alleviate the accumulation of white fat or not, the photos of appearances of the liver, heart, kidney, subcutaneous adipose tissue and visceral adipose tissue of mice in each group recorded in Example B2-3 are shown in FIG. 6A. The weight of subcutaneous adipose tissue and visceral adipose tissue of mice in each group recorded in Example B2-3 were respectively averaged.

[3] = Change of mouse weight in high fat diet mice; assay type: in vivo; details: vs HFD group
Description: as §3, §4
B2-1. In the preparation process of above Example A2, the weight change of mice was recorded every week until they were 18 weeks old.
To understand whether butylidenephthalide (BP) is effective in inhibiting weight gain or not, the average value of the recorded weights of mice in each group of Example B2-1 was obtained weekly.

C57BL/6 mice [4] = experiment: Contents of glucose, triglycerides and total cholesterol in blood of high fat diet mice; assay type: in vivo
Description: as §3, §5, §6
(5) Oral administration of butylidenephthalide (BP) in combination with cell infusion of adipose stem cells group (i.e., “HFD+BP+ADSC” group): the mice were continuously fed with a high fat diet, then simultaneously administered with butylidenephthalide (BP) by oral route at the beginning of the ninth week (dosage amount: every day, 250 mg/kg-body weight), and further simultaneously administered with adipose stem cells by intravenous injection at the beginning of the eleventh week (dosage amount: every two weeks, 4×10^5 cells suspended in 100˜150 μL of normal saline) until they were 18 weeks old (four injections in total).
(6) Cell infusion of brown-like adipose cells group (i.e., “HFD+BLC” group): the mice were fed with a high fat diet, and then simultaneously administered with brown-like adipose cells provided by Example 1 by intravenous injection at the beginning of the eleventh week (dosage amount: every two weeks, 4×10^5 cells suspended in 100˜150 μL of normal saline) until they were 18 weeks old (four injections in total).
(7) Oral administration of butylidenephthalide (BP) in combination with cell infusion of brown-like adipose cells group (i.e., “HFD+BP+BLC” group): the mice were continuously fed with a high fat diet, then simultaneously administered with butylidenephthalide (BP) by oral route (dosage amount: every day, 250 mg/kg-body weight) at the beginning of the ninth week, and further simultaneously administered with brown-like adipose cells provided by Example 1 by intravenous injection at the beginning of the eleventh week (dosage amount: every two weeks, 4×10^5 cells suspended in 100˜150 μL of normal saline) until they were 18 weeks old (four injections in total).
B2-2. After Example B2-1 was accomplished, the mice was subjected to fast for 12 hours, and then the blood of mice was collected in a serum tube by cardic blood collection. The collected blood was stand for 30 minutes, and then subjected to centrifuge at 3000 rpm, 4° C. for 10 minutes. The supernatant thus provided was collected (i.e., blood sample) and kept at a temperature of 4° C. for following experimentation and analysis.
To understand whether butylidenephthalide (BP) is effective in reducing the contents of glucose, triglycerides and total cholesterol in blood or not, the blood sample of mice in each group provided by Example B2-2 was detected by a SYSMEX K-1000 and TOSHIBA TBA200FA automatic blood analyzer to analyze the contents of glucose, triglycerides and total cholesterol in blood of mice. The results of each group were averaged. Based on the result of “HFD” group, the relative contents of glucose, triglycerides and total cholesterol of each group were calculated.

[5] = 18 weeks old, BP oral 250 mg/kg-body weight daily from week 9, cells i.v. 4×10^5 every two weeks from week 11
[6] = based on the result of HFD group (100)
[7] = high fat diet mice, 18 weeks old, fasted 12 hours, BP oral 250 mg/kg-body weight daily, cells i.v. 4×10^5 every two weeks
[8] = high fat diet mice, vs HFD group

CCCC=C1OC(=O)c2ccccc21 [BP, butylidenephthalide]
content of adipose droplets (oil red stain, FIGS. 2A, 2B) (adipose stem cells; BP 2 μg/mL, vs adipose cells not treated by BP): contained more adipose droplets
adipose droplets in cells (microscope morphology, FIG. 1) (adipose stem cells; BP 10 μg/mL in conditional medium, vs undifferentiated adipose stem cells and differentiated adipose cells): contained more adipose droplets
content of adipose droplets (oil red stain, FIGS. 2A, 2B) (adipose stem cells; BP 10 μg/mL, vs adipose cells not treated by BP and other BP groups): highest content of adipose droplets
content of adipose droplets (oil red stain, FIGS. 2A, 2B) (adipose stem cells; BP 50 μg/mL, vs adipose cells not treated by BP): contained more adipose droplets
oxygen consumption rate (FIG. 3A) (adipose cells; BP 2 μg/mL): higher oxygen consumption rate
spare respiratory capacity (FIG. 3B) (adipose cells; BP 2 μg/mL): higher
oxygen consumption rate (FIG. 3A) (adipose cells; BP 10 μg/mL): higher oxygen consumption rate
spare respiratory capacity (FIG. 3B) (adipose cells; BP 10 μg/mL): higher
oxygen consumption rate (FIG. 3A) (adipose cells; BP 50 μg/mL): higher oxygen consumption rate
spare respiratory capacity (FIG. 3B) (adipose cells; BP 50 μg/mL): higher
increments of UCP1 gene and UCP1 protein compared with known drugs (UCP1; BP 10 μg/mL vs tofacitinib 2 μM, adenosine 1 μM, proanthocyanidin 10 μM): higher than that of tofacitinib group, adenosine group and proanthocyanidin group
expression of UCP1 gene (RT-PCR, FIG. 4A) (UCP1; BP 10 μg/mL, vs control group): significantly increased
expression of UCP1 protein (Western blot, FIG. 4B) (UCP1; BP 10 μg/mL, vs control group): significantly increased
cell morphology of subcutaneous and visceral adipose tissue (FIGS. 5A, 5B) (C57BL/6 mice [1]): contained the brown adipose cells with numerous small adipose droplets
Subcutaneous adipose tissue (weight, average) (C57BL/6 mice [2]; [5]): 0.24 g
Visceral adipose tissue (weight, average) (C57BL/6 mice [2]; [5]): 0.57 g
accumulation condition of white fat in visceral (appearance, FIG. 6A) (C57BL/6 mice [2]; vs HFD group): significantly alleviated
weights of subcutaneous fat and visceral fat, in words (C57BL/6 mice [2]; vs HFD group): significantly lower
weights of mice (weight gain, 9 to 18 weeks old, FIG. 7) [3]: increased significantly less
Relative content of glucose (C57BL/6 mice [4]; [6]): 85
Relative content of total cholesterol (C57BL/6 mice [4]; [6]): 80
Relative content of triglycerides (C57BL/6 mice [4]; [6]): 84
Glucose (serum) (C57BL/6 mice [4]; [7]): 411.50 ± 43.50 mg/dL
Total cholesterol (serum) (C57BL/6 mice [4]; [7]): 157.50 ± 1.50 mg/dL
Triglycerides (serum) (C57BL/6 mice [4]; [7]): 213.50 ± 50.50 mg/dL
content of glucose in blood, in words (C57BL/6 mice [4]; [8]): significantly lower
content of total cholesterol in blood (FIG. 8C; printed as triglycerides), in words (C57BL/6 mice [4]; [8]): significantly lower
content of triglycerides in blood, in words (C57BL/6 mice [4]; [8]): significantly lower
